This note sets out measurements from patent publication US20250221966A1, “RXFP1 AGONISTS” (BRISTOL-MYERS SQUIBB COMPANY, priority 2021, published 2025).

One assay deals with T1, human RXFP1 (Homo sapiens, UniProt Q9HBX9).
T1 construct: expressed in transfected cells
T1 sequence (Q9HBX9 1-757): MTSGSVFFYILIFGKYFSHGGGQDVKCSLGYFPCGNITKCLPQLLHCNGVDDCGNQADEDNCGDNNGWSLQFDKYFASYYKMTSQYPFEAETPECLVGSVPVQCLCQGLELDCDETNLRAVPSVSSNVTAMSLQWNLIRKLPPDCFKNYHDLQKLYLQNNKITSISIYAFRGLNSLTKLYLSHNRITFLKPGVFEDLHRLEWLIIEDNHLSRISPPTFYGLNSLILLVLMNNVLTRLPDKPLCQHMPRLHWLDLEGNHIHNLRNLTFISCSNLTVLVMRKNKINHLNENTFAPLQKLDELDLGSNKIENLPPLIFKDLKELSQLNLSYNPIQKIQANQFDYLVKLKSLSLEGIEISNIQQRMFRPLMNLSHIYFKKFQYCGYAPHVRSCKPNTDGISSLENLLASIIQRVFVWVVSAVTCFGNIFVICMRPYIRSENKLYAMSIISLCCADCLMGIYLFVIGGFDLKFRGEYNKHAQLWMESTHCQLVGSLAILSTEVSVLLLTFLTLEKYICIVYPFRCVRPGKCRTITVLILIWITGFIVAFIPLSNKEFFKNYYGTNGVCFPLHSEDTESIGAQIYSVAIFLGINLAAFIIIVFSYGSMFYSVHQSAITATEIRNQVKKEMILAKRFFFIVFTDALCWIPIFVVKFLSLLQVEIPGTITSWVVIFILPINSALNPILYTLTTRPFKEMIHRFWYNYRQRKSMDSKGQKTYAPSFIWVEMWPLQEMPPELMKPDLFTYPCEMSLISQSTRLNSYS
As to the kind of experiment: RXFP1 cAMP assay (hRXFP1 HEK293 cAMP assay, HTRF). Format: cell-based. As to conditions: HEK293 cells stably expressing human RXFP1, 30 min at room temperature, read-out: cAMP hRXFP1 HEK293 Assay EC50. The procedure:
RXFP1 Cyclic Adenosine Monophosphate (cAMP) Assays. […] Cells were dissociated and suspended in assay buffer. The assay buffer was HBSS buffer (with calcium and magnesium) containing 20 mM HEPES, 0.05% BSA, and 0.5 mM IBMX. Cells (3000 cells per well, except 1500 cell per well for HEK293 cells stably expressing human RXFP1) were added to 384-well Proxiplates (Perkin-Elmer). Cells were immediately treated with test compounds in DMSO (2% final) at final concentrations in the range of 0.010 nM to 50 μM. Cells were incubated for 30 min at room temperature. The level of intracellular cAMP was determined using the HTRF HiRange cAMP assay reagent kit (Cisbio) according to manufacturer's instructions. Solutions of cryptate conjugated anti-cAMP and d2 fluorophore-labelled cAMP were made in a supplied lysis buffer separately. Upon completion of the reaction, the cells were lysed with equal volume of the d2-cAMP solution and anti-cAMP solution. […] The potency and activity of a compound to […] cAMP production was then determined by fitting to a 4-parametric logistic equation from a plot of cAMP level versus compound concentrations.
Regarding `COc1ccc(-c2cc(C(=O)O)ccc2F)cc1C(=O)NC1C2CCC(/C2=C/c2cn(C[Si](C)(C)C)nn2)[C@@H]1C(=O)Nc1ccc(F)c(C(F)(F)F)c1` (stereo partly shown) [Example 325], the EC50 came to 4.83 µM.

With `O=C(N[C@H]1[C@@H](C(=O)Nc2ccc(F)c(C(F)(F)F)c2)[C@H]2CC[C@@H]1/C2=C\C1CC1)c1cc(C2=NOC3COCC23)ccc1OCCCF` (stereo partly shown) [compound 786], the concentration for a half-maximal effect (EC50) came out at 0.004 µM.

Take `COc1ccc(-c2cc([C@H](OC(=O)NC3CC3)C(F)(F)F)ccc2F)cc1C(=O)N[C@H]1[C@@H](C(=O)Nc2ccc(F)c(C(F)(F)F)c2)[C@H]2CC[C@@H]1/C2=C\C(C)C` [compound 930]: the half-maximal effective concentration (EC50) turned out to be 0.0011 µM.

Turning to `COc1ccc(-c2ccc3c(c2)nnn3CC(=O)O)cc1C(=O)N[C@@H]1C2CCC(/C2=C/C(F)(F)F)[C@@H]1C(=O)Nc1ccc(F)c(C(F)(F)F)c1` (stereo partly shown) [compound 312], the EC50 stood at 0.009 µM.

Regarding `COc1ccc(C2=NOC3C(O)CC(O)C23)cc1C(=O)N[C@H]1[C@@H](C(=O)Nc2ccc(F)c(C(F)(F)F)c2)[C@H]2CC[C@@H]1/C2=C\C1CC1` (single isomer, unassigned) [compound 674], the EC50 was found to be 0.481 µM.

With `COc1ccc(C2=NO[C@@H]3C[C@H](C(F)(F)F)CN23)cc1C(=O)N[C@H]1[C@@H](C(=O)Nc2ccc(F)c(C(F)(F)F)c2)[C@H]2CC[C@@H]1/C2=C\C1CC1` [compound 847], the EC50 was found to be 0.0025 µM.

`CCCCC1[C@H]2CC[C@@H]1[C@H](C(=O)Nc1ccc(F)c(C(F)(F)F)c1)[C@@H]2NC(=O)c1cc(C2=NOC3CC(CO)CC23)ccc1OC` (stereo partly shown) [Example 467]: the EC50 was determined as 0.004 µM.

`COc1ccc(-c2cc(C(OC(=O)Nc3ccccc3)C(=O)O)ccc2F)cc1C(=O)N[C@@H]1C2CCC(/C2=C/C2CC2)[C@@H]1C(=O)Nc1ccc(F)c(C(F)(F)F)c1` (stereo partly shown) [Example 177]: the EC50 is 0.005 µM.

As for `COc1ccc(Cl)cc1C(=O)N[C@@H]1C2CCC(C2=C(C)C)[C@@H]1C(=O)Nc1ccc(F)c(C(F)(F)F)c1` (stereo partly shown) [compound 109], the EC50 was found to be 0.39 µM.

Turning to `COc1ccc(C2=NOC3CC(C(O)C(F)(F)F)CC23)cc1C(=O)N[C@H]1[C@@H](C(=O)Nc2ccc(F)c(C(F)(F)F)c2)[C@H]2CC[C@@H]1/C2=C\C1CC1` (single isomer, unassigned) [Example 530], the EC50 is 0.0227 µM.

Consider `COc1ccc(-c2cc(C(OC(=O)NC3CCC3)C(=O)O)ccc2F)cc1C(=O)N[C@H]1[C@@H](C(=O)Nc2ccc(F)c(C(F)(F)F)c2)[C@H]2CC[C@@H]1/C2=C\C1CC(F)(F)C1` (stereo partly shown) [compound 939], for which the EC50 was found to be 0.0006 µM.

As for `COc1ccc(C2=NOC3COCC23)cc1C(=O)N[C@H]1[C@@H](C(=O)NCc2cccnc2C)[C@H]2CC[C@@H]1/C2=C\C1CC1` (stereo partly shown) [compound 721], the EC50 was 3.91 µM.

Consider `COc1ccc(C2=NOC(CC(C)(C)O)C2)cc1C(=O)N[C@H]1[C@@H](C(=O)Nc2ccc(F)c(C(F)(F)F)c2)[C@H]2CC[C@@H]1/C2=C\C1CC1` (single isomer, unassigned) [compound 499], for which the EC50 worked out at 0.011 µM.

As for `COc1ccc(-c2cc(C(NC(=O)C3CCOCC3)C(=O)O)ccc2F)cc1C(=O)N[C@H]1[C@@H](C(=O)Nc2ccc(F)c(C(F)(F)F)c2)[C@H]2CC[C@@H]1/C2=C\C1CC1` (stereo partly drawn) [Example 238, 2-(3′-(((1R,2R,3S,4R,Z)-7-(cyclopropylmethylene)-3-((4-fluoro-3-(trifluoromethyl)phenyl)carbamoyl)bicyclo[2.2.1]heptan-2-yl)carbamoyl)-6-fluoro-4′-methoxy-[1,1′-biphenyl]-3-yl)-2-(tetrahydro-2H-pyran-4-carboxamido)acetic acid], the EC50 was determined as 0.001 µM.

For the compound `COc1ccc(C2=NOC(CC(=O)O)C2)cc1C(=O)N[C@@H]1C2CCC(/C2=C/C2CCC2)[C@@H]1C(=O)Nc1ccc(F)c(C(F)(F)F)c1` (stereo partly shown) [compound 393], the EC50 is 0.073 µM.

With `COc1ccc(C2CN(C(=O)N3CCC(O)CC3)C2)cc1C(=O)N[C@H]1[C@@H](C(=O)Nc2ccc(F)c(C(F)(F)F)c2)[C@H]2CC[C@@H]1/C2=C\C1CC1` [compound 527], the EC50 was 0.0224 µM.

For `COc1cc(C(=O)N[C@H]2[C@@H](C(=O)Nc3ccc(F)c(C(F)(F)F)c3)[C@H]3CC[C@@H]2/C3=C\C2CC2)cc(C2=NOC3COCC23)c1` (single isomer, unassigned) [compound 602], the EC50 was 0.11 µM.

Take `COc1ccc(C2=NOC(CO)C2)cc1C(=O)N[C@@H]1C2CCC(/C2=C/C2CC2)[C@@H]1C(=O)Nc1ccc(F)c(C(F)(F)F)c1` (stereo partly shown) [compound 381]: the EC50 came to 0.02 µM.

As for `COc1ccc(C2=NOC(C(=O)O)C2)cc1C(=O)N[C@@H]1C2CCC(/C2=C/C2CCC2)[C@@H]1C(=O)Nc1ccc(F)c(C(F)(F)F)c1` (stereo partly shown) [compound 387], the EC50 is 0.011 µM.

Consider `CCC/C=C/C=C1\C2CCC1[C@H](C(=O)Nc1ccc(F)c(C(F)(F)F)c1)[C@@H]2NC(=O)c1cc(F)c(F)cc1OC` (stereo partly shown) [compound 45], for which the EC50 was 0.059 µM.

Turning to `COc1ccc(C2=NOC3COCC23)cc1C(=O)N[C@H]1[C@@H](C(=O)N[C@H](C)C2CCC2)[C@H]2CC[C@@H]1/C2=C\C1CC1` (stereo partly shown) [compound 507], the EC50 is 0.0129 µM.

Regarding `COc1c(F)cc(-c2cc([C@H](OC(=O)NC3CCC3)C(F)(F)F)ccc2F)cc1C(=O)N[C@H]1[C@@H](C(=O)N[C@H](C)C2(C)CC2)[C@H]2CC[C@@H]1/C2=C\C1CC(F)(F)C1` [compound 970], the EC50 was determined as 0.002 µM.

Take `CCC(C)(C)NC(=O)[C@@H]1[C@H](NC(=O)c2cc(C3=NOC4COCC34)ccc2OC)[C@@H]2CC[C@H]1/C2=C/C1CC1` (stereo partly shown) [compound 502]: the EC50 came to 0.0119 µM.

On to `COc1ccc(-c2cc(C(=O)O)ccc2F)cc1C(=O)N[C@@H]1C2CCC(/C2=C/c2ccccc2)[C@@H]1C(=O)Nc1cccc(S(=O)(=O)C(F)(F)F)c1` (stereo partly shown) [compound 122], for which the EC50 is 0.013 µM.

As to `COc1ccc(C2=NOC3(CO)CCCC23)cc1C(=O)N[C@H]1[C@@H](C(=O)Nc2ccc(F)c(C(F)(F)F)c2)[C@H]2CC[C@@H]1/C2=C\C1CC1` (single isomer, unassigned) [compound 616], the EC50 was 0.141 µM.

As to `COc1ccc(C2=NOC3COCC23)cc1C(=O)N[C@H]1[C@@H](C(=O)N[C@H](C)C2CCCC2)[C@H]2CC[C@@H]1/C2=C\C1CC1` (stereo partly shown) [compound 535], the EC50 is 0.024 µM.

For the compound `COc1ccc(C2=NOC(C(=O)O)C2)cc1C(=O)N[C@H]1[C@@H](C(=O)Nc2ccc(F)c(C(F)(F)F)c2)[C@H]2CC[C@@H]1/C2=C\C1CC1` (mixture of isomers) [Example 384, 3-(3-(((1R,2R,3S,4R,Z)-7-(cyclopropylmethylene)-3-((4-fluoro-3-(trifluoromethyl)phenyl)carbamoyl)bicyclo[2.2.1]heptan-2-yl)carbamoyl)-4-methoxyphenyl)-4,5-dihydroisoxazole-5-carboxylic acid], the EC50 amounted to 0.123 µM.

In the case of `COc1ccc(C2=NOC3COCC23)cc1C(=O)N[C@H]1[C@@H](C(=O)N[C@@H](C)C(C)(C)C)[C@H]2CC[C@@H]1/C2=C\C1CC1` (stereo partly shown) [compound 541], the EC50 was found to be 0.03 µM.

Turning to `COc1ccc(C2=NOC(C(N)=O)C2)cc1C(=O)N[C@@H]1C2CCC(/C2=C/C2CC2)[C@@H]1C(=O)Nc1ccc(F)c(C(F)(F)F)c1` (stereo partly shown) [compound 404], the EC50 turned out to be 0.045 µM.

As for `COc1ccc(C2=NOC3COCC23)cc1C(=O)N[C@H]1[C@@H](C(=O)NC2CCCCC2)[C@H]2CC[C@@H]1/C2=C\C1CC1` (stereo partly shown) [compound 552], the EC50 came out at 0.0367 µM.

Regarding `COc1ccc(C2CC3CN(C(=O)OC(C)(C)C)CC32)cc1C(=O)N[C@H]1[C@@H](C(=O)Nc2ccc(F)c(C(F)(F)F)c2)[C@H]2CC[C@@H]1/C2=C\C1CC1` (single isomer, unassigned) [compound 731], the EC50 worked out at 0.01 µM.

With `COc1ccc(C2=NOC3CC(CO)CC23)cc1C(=O)N[C@H]1[C@@H](C(=O)N[C@H](C)C2(C)CC2)[C@H]2CC[C@@H]1/C2=C\c1csc(C)n1` (stereo partly shown) [compound 742], the EC50 amounted to 0.0047 µM.

Staying with this assay, now noted: cAMP hRXFP1 HEK293 Assay EC50, HEK293 cells stably expressing human RXFP1, 30 min at room temperature.
In the case of `COc1cc(F)c(F)cc1C(=O)N[C@@H]1C2CCC(/C2=C/c2c(Cl)cccc2Cl)[C@@H]1C(=O)Nc1ccc(F)c(C(F)(F)F)c1` (stereo partly shown) [compound 69], the EC50 is 3.7 µM.

The compound `COc1ccc(-c2cc(C(=O)O)ccc2F)cc1C(=O)N[C@H]1[C@@H](C(=O)Nc2ccc(F)c(C(F)(F)F)c2)[C@H]2CC[C@@H]1/C2=C\c1ccccc1` [compound 80] displayed an EC50 of 0.011 µM.

One may read the EC50 as the concentration giving half of the maximal effect.
